The target of data set [1] is recombinant RORγ Ligand Binding Domain (LBD) protein (Homo sapiens (Human), UniProt P51449). The data set is described as follows: Radio-Ligand RORγ Binding Assay (Assay 1). The settings on record: competition with 25-hydroxy [26,27-3H]-cholesterol, SPA; read-out: RORγ Binding Ki Range (nM) (Assay 1). Here is the method: Radio-Ligand RORγ Binding Assay (Assay 1)
Compounds of the present invention were tested for ability to bind to RORγ in a cell-free competition assay with commercially available radio-ligand (RL), 25-hydroxy [26,27-^3H]-cholesterol (PerkinElmer, Cat. # NET674250UC), for a ligand binding site on a recombinant RORγ Ligand Binding Domain (LBD) protein expressed as a 6×His-Glutathione-S-Transferase (GST) fusion. […] The plate was shaken at 700 rpm for 20 min and incubated for 10 min at rt, after which 40 μL of poly-Lys YSi SPA beads (PerkinElmer, Cat. # RPNQ0010) were added to achieve 50 μg of the beads per well. The plate was incubated on an orbital shaker for 20 min and then for 10 min without agitation at rt. SPA signal for tritium beta radiation was registered on PerkinElmer Microbeta plate reader. […] The percent inhibition vs. concentration data were fit into a four-parameter model, and IC50 values were calculated from the fit as the concentrations corresponding to the inflection points on the dose-response curves.

Data set [2] concerns the target full-length RORγt in Jurkat cells (Homo sapiens (Human), UniProt P51449). In words: RORγt 5×RORE Assay in Jurkat Cells (Assay 2). It is filed as cell-based. The settings on record: 5×RORE Nanoluc luciferase reporter, read-out: RORγt5X IC50 Range (nM) (Assay 2). Here is the method:
[formula] RORγt 5×RORE Assay in Jurkat Cells (Assay 2)
Compounds of the present invention were tested for RORγ inverse agonist activity in a cell-based, transcriptional activity assay. […] (Promega, Cat. # N1021) using KpnI and HindIII restriction sites. […] Tested compounds were added to the cells in the same media (final concentration of DMSO was 0.1% (v/v)), and the plates were incubated at 37° C./5% CO2 for 16-18 hr. Luciferase activity in the conditioned supernatants was determined with NanoGlo® assay reagents (Promega, Cat.# N1130).

Data set [3] deals with hERG potassium ion channel (Homo sapiens (Human), UniProt Q12809). The data set is described as follows: hERG Assay (Assay 4). Type of data set: cell-based. The settings on record: HEK293 cells stably transfected with hERG cDNA, pH 7.4, compound at 3 μM, patch clamp, HEK 293 cells transfected with hERG. On the procedure: Compounds of the invention were tested in vitro against the hERG (human ether-à-go-go-related gene) potassium ion channel (a surrogate for IKr, the rapidly activating delayed rectifier cardiac potassium ion channel).
The buffer was HEPES-buffered physiological saline (HB-PS) solution composed of: 137 mM NaCl, 4.0 mM KCl, 1.8 mM CaCl2, 1 mM MgCl2, 10 mM HEPES, 10 mM glucose, pH adjusted to 7.4 with NaOH, and 0.3% DMSO. Chemicals used in solution preparation were purchased from Sigma-Aldrich (St. Louis, Mo.), unless otherwise noted, and were of ACS reagent grade purity or higher.
HEK (human embryonic kidney) 293 cells were stably transfected with hERG cDNA.
For the patch clamp experiment, onset and steady state inhibition of hERG potassium current was measured using a pulse pattern with fixed amplitudes (depolarization: +20 mV for 2 s; repolarization: −50 mV for 2 s) repeated at 10 s intervals from a holding potential of −80 mV. Peak tail current was measured during the 2 s step to −50 mV. A steady state was maintained for at least 30 seconds before applying compound or positive control (cisapride). Peak tail currents were measured until a new steady state was achieved.
Data acquisition and analyses were performed using the suite of pCLAMP® (ver. 8.2) programs (MDS Analytical Technologies, Sunnyvale, Calif.). Steady state was defined by the limiting constant rate of change with time (linear time dependence). The steady state before and after each compound application was used to calculate the percentage of current inhibited at each concentration.
Concentration-response data were fit to an equation of the following form: % Inhibition={1−1/[1+([Test]/IC50)N]}*100
where [Test] was the compound concentration, IC50 was the compound concentration at half-maximal inhibition, N was the Hill coefficient, and % Inhibition was the percentage of current inhibited at each compound concentration. Nonlinear least squares fits were solved with the Solver add-in for Excel 2003 (Microsoft, WA) and the IC50 was calculated.
A general note: Block of hERG is tested as a sign of cardiac risk.

The subject of data set [4] is IL-17A production in human whole blood. The data set is described as follows: Human Whole Blood Assay (Assay 3). It is filed as cell-based. As to conditions: IL-17A secretion, CytoStim activation, 48 h, 50% blood/media. Here is the method: Human Whole Blood Assay (Assay 3)
Compounds of the invention were tested in the human whole blood assay to measure their effects on IL-17A production as determined by cytokine secretion into 50% blood/media supernatant. Mixtures of sodium heparinized whole blood (isolated from healthy human donors) and the T cell activator CytoStim, in the presence or absence of compound, were plated in sterilized, tissue culture-treated 24-well plates. […]
Mixtures were incubated at 37° C./5% CO2 for 48 h, after which, 200 μL of clean supernatant (i.e., no red blood cells) from each well was transferred to a well in a 96-well plate. IL-17A cytokine expression was determined using 25 μL of the transferred supernatant diluted with 25 μL of Diluent 43 from the Human IL-17A V-PLEX™ kit (cat. # K151RFD-4, Meso Scale Discovery, Rockville, Md.). […] The IL-17A V-PLEX™ plates were read using the Meso Scale Discovery Imager (Model 1200). The levels of IL-17A were extrapolated from a standard curve using a four-parameter non-linear fitting model and expressed as pg/mL. […]

Each structure is given as a SMILES string.

Sequence of recombinant RORγ Ligand Binding Domain (LBD) protein (P51449 269-508): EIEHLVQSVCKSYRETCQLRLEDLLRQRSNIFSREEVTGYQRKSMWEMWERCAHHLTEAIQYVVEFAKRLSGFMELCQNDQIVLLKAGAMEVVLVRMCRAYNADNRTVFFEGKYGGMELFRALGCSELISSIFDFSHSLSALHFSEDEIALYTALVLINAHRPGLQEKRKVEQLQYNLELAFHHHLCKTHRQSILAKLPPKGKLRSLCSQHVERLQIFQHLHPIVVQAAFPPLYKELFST
Sequence of full-length RORγt in Jurkat cells (P51449 other isoform, or with tags, fused parts or gaps): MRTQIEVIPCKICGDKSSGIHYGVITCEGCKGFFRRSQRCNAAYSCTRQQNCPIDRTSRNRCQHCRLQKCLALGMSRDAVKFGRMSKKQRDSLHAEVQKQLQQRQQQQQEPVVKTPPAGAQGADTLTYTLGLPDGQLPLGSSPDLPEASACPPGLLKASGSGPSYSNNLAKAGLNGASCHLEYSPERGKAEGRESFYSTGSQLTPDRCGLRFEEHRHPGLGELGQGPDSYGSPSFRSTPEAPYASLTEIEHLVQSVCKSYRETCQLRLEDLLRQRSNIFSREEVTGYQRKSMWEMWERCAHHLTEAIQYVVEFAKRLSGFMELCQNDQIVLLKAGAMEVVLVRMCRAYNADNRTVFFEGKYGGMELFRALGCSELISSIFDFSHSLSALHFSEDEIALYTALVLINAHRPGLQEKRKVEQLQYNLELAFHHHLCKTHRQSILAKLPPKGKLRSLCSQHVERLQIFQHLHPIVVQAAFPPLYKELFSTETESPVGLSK
Sequence of hERG potassium ion channel (Q12809 whole entry): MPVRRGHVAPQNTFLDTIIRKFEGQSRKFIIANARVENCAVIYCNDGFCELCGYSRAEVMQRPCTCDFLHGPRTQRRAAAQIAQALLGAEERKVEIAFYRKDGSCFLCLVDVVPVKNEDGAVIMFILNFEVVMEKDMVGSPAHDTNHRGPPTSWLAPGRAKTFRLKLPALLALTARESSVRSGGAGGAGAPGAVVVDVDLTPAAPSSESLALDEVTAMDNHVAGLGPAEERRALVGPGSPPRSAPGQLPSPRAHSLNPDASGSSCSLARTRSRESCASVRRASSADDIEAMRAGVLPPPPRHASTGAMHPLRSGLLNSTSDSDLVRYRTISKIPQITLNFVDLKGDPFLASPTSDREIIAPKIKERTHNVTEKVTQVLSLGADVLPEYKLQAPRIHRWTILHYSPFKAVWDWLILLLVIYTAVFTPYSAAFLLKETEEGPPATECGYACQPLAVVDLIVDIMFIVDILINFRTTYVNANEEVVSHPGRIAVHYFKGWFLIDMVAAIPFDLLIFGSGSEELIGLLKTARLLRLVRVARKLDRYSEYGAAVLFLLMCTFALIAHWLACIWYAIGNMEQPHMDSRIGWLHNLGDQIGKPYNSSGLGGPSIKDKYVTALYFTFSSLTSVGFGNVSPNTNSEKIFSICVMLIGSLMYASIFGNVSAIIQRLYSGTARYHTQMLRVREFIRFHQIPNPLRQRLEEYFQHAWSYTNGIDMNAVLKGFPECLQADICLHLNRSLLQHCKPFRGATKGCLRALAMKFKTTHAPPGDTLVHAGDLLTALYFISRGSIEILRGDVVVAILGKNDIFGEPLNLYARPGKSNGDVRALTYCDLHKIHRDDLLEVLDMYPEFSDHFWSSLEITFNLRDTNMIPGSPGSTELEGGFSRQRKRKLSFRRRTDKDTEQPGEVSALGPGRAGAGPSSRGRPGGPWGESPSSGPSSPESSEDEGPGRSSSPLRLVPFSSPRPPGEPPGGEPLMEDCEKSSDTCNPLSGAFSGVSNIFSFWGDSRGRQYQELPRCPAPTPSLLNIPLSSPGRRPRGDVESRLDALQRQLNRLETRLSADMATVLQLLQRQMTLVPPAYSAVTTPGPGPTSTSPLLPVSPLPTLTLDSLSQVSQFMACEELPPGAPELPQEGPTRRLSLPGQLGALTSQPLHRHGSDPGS

Regarding `CC[C@H]1c2ncc(C(=O)N[C@@H](COC)c3ccc(S(=O)(=O)CC)cc3)cc2CN1C[C@H]1CC[C@H](C(F)(F)F)CC1` [Compound 1, (S)-7-ethyl-N—((R)-1-(4-(ethylsulfonyl)phenyl)-2-methoxyethyl)-6-((trans-4-(trifluoromethyl)cyclohexyl)methyl)-6,7-dihydro-5H-pyrrolo[3,4-b]pyridine-3-carboxamide], the Ki in data set [1] was below 100 nM. In addition, the IC50 in data set [2] and in data set [4] was below 100 nM in each case. In data set [3], this compound gave an inhibition at 3 µM of 24.3%.
As to `CC[C@H]1c2ncc(C(=O)N[C@@H](COC)c3ccc(S(=O)(=O)CC)cc3)cc2CN1C[C@H]1CC[C@@H](C(F)(F)F)OC1` (single isomer, unassigned) [Compound 6], in data set [1], the inhibitory constant (Ki) is below 100 nM. Also, the IC50 in data set [2] is above 1000 nM.
For `CCS(=O)(=O)c1ccc([C@H](COC(N)=O)NC(=O)c2cnc3c(c2)CN(C[C@H]2CC[C@H](C(F)(F)F)CC2)[C@H]3C(C)C)nc1` [Compound 10], in that order: below 100 nM and below 100 nM.
`CCS(=O)(=O)c1ccc([C@@H](COC(N)=O)NC(=O)c2cnc3c(c2)CN(C[C@H]2CC[C@H](C(F)(F)F)CC2)[C@H]3C(C)C)cc1` [Compound 12]: in data set [1], the inhibition constant Ki is below 100 nM. The IC50 in data set [2] is below 100 nM. The same compound displayed an inhibition at 3 µM in data set [3] of 38.8%.
With `CCS(=O)(=O)c1ccc([C@H](COC)NC(=O)c2cnc3c(c2)CN(C[C@H]2CC[C@@H](C(F)(F)F)CC2)[C@H]3C(C)C)cc1` [Compound 8], in data set [1], the Ki is below 100 nM. Also, the half-maximal inhibitory concentration (IC50) in data set [2] is above 1000 nM.
On to `CCS(=O)(=O)c1ccc(CNC(=O)c2cnc3c(c2)CN(C[C@H]2CC[C@H](C(F)(F)F)CC2)[C@H]3C(C)C)cc1`, for which testing at 3 µM in data set [3] gave an inhibition of 57%.
Consider `CC[C@H]1c2ncc(C(=O)N[C@@H](COC(N)=O)c3ccc(S(=O)(=O)CC)cc3)cc2CN1C[C@H]1CC[C@H](C(F)(F)F)CC1` [Compound 2, (R)-2-((S)-7-ethyl-6-((trans-4-(trifluoromethyl)cyclohexyl)methyl)-6,7-dihydro-5H-pyrrolo[3,4-b]pyridine-3-carboxamido)-2-(4-(ethylsulfonyl)phenyl)ethyl carbamate], for which, in data set [1], the inhibition constant Ki is […]. For the same compound, the results for the half-inhibitory concentration (IC50) in data set [2] and in data set [4] were […] and […], respectively. This compound also registered an inhibition at 3 µM in data set [3] of 38.8%.
In the case of `CCS(=O)(=O)c1ccc([C@@H](COC(N)=O)NC(=O)c2cnc3c(c2)CN(C[C@H]2CC[C@@H](C(F)(F)F)CC2)[C@H]3C(C)C)nc1` [Compound 9], the Ki in data set [1] was below 100 nM. Further, the IC50 in data set [2] was above 1000 nM.
With `CC[C@@H]1c2ncc(C(=O)N[C@@H](COC(N)=O)c3ccc(S(=O)(=O)CC)cc3)cc2CN1C[C@H]1CC[C@H](C(F)(F)F)CC1` [Compound 13], the Ki in data set [1] was […].
For `CCS(=O)(=O)c1ccc([C@H](COCC(=O)O)NC(=O)c2cnc3c(c2)CN(C[C@H]2CC[C@H](C(F)(F)F)CC2)[C@H]3C(C)C)cc1` [Compound 14], in data set [1], the inhibition constant (Ki) was below 100 nM. Also, the IC50 in data set [2] was 100 to 1000 nM.
In data set [3], `CCS(=O)(=O)c1ccc(CNC(=O)c2cnc3c(c2)CN(C[C@H]2CC[C@H](C(F)(F)F)CC2)[C@H]3C(C)C)nc1` had an inhibition at 3 µM of 45.4%.
For the compound `CCS(=O)(=O)c1ccc([C@H](COC)NC(=O)c2cnc3c(c2)CN(C[C@H]2CC[C@H](C(F)(F)F)CC2)[C@H]3C(C)C)cc1` [Compound 15], the Ki in data set [1] was below 100 nM. In data set [2], the IC50 was below 100 nM. In data set [3], the inhibition at 3 µM is 50%.
With `CC[C@H]1c2ncc(C(=O)N[C@@H](COC)c3ccc(S(=O)(=O)CC)cc3)cc2CN1C[C@@H]1CC[C@@H](C(F)(F)F)OC1` (single isomer, unassigned) [Compound 4], in data set [1], the Ki was below 100 nM. Also, in data set [2], the IC50 is below 100 nM.
Take `CC[C@H]1c2ncc(C(=O)N[C@@H](COC)c3ccc(S(=O)(=O)CC)cc3)cc2CN1C[C@H]1CC[C@H](C(F)(F)F)OC1` (single isomer, unassigned) [Compound 3]: the Ki in data set [1] was below 100 nM. The IC50 in data set [2] was below 100 nM. In data set [3], this compound yielded an inhibition at 3 µM of 24.3%.
As for `CC[C@H]1c2ncc(C(=O)N[C@@H](COC)c3ccc(S(=O)(=O)CC)cc3)cc2CN1C[C@@H]1CC[C@H](C(F)(F)F)OC1` (single isomer, unassigned) [Compound 5], the inhibition constant (Ki) in data set [1] is below 100 nM. In addition, the 50% inhibitory concentration (IC50) in data set [2] is above 1000 nM.
For `CCS(=O)(=O)c1ccc([C@H](COC(N)=O)NC(=O)c2cnc3c(c2)CN(C[C@H]2CC[C@@H](C(F)(F)F)CC2)[C@H]3C(C)C)cc1` [Compound 11], in that order: below 100 nM and above 1000 nM.

The term Ki denotes a measure of affinity in units of concentration, obtained from inhibition or displacement. Broadly, the IC50 is the concentration that inhibits the measured activity by half. As usually defined, the inhibition is how much of the control response was suppressed. A lower inhibition goes with a weak effect.

These data come from US9663515B2, “Dihydropyrrolopyridine inhibitors of ROR-gamma” (Vitae Pharmaceuticals, Inc., priority 2014, dated 2017).
